Seven compounds from ChEMBL document CHEMBL1201862, “PubChem BioAssay data set” (2004) can be followed below.

Test systems include M14; UACC-62; A498; HL-60; UACC-257; NCI-H460; SK-OV-3; HCC 2998; OVCAR-4; SN12C; UO-31; HOP-92; COLO 205; SF-268; RPMI-8226; OVCAR-3; RXF 393; DU-145; SW-620; MDA-MB-231.
Experiment in all cases: NCI tumour cell line growth inhibition, 48 h

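Where inhibition never reached the appropriate level, the endpoint shown equals the highest concentration tested. Otherwise, values were interpolated linearly from a five-concentration, 48-hour dose response in 96-well plates. GI50 marks 50% less growth.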 Active and inactive are the calls of the source. Cut-off read from the data, not from the text of the source: active = GI50 up to about 1.1 µM and inactive = higher.

Take `CC1(C)C2CCC(CN)(C2)C1N` (stereo not given): the GI50 is > 100 µM (inactive) in the assay with M14; > 100 µM (inactive) in the assay with UACC-62; > 100 µM (inactive) in the assay on A498; > 100 µM (inactive) with HL-60; 14.8 µM (inactive) in the assay on UACC-257; 4.49 µM (inactive) with NCI-H460. Further, the GI50 in the assay on SK-OV-3 was > 100 µM (inactive); with HCC 2998, 9.42 µM (inactive); with OVCAR-4, > 100 µM (inactive); with SN12C it was > 100 µM (inactive); with UO-31 it was > 100 µM (inactive); in the assay on HOP-92, > 100 µM (inactive). The GI50 with COLO 205, with SF-268, in the assay on RPMI-8226, with OVCAR-3, with RXF 393 and in the assay with DU-145 was > 100 µM (inactive) each time. Besides, the GI50 in the assay with SW-620 and in the assay with MDA-MB-231 was > 100 µM (inactive) in each case.
As to `O=C(O)c1ccc(C(=O)c2ccccc2)c(C(=O)O)c1`, the GI50 in the assay with M14, in the assay with UACC-62, in the assay on A498, in the assay on HL-60, in the assay on UACC-257 and in the assay with NCI-H460 was > 100 µM (inactive) in each case. Besides, the GI50 in the assay on SK-OV-3, with HCC 2998, in the assay with OVCAR-4, in the assay on SN12C, in the assay with UO-31 and with HOP-92 was > 100 µM (inactive) throughout. The GI50 in the assay on COLO 205, with SF-268, in the assay with RPMI-8226, in the assay with OVCAR-3, in the assay on RXF 393 and with DU-145 was > 100 µM (inactive) in each case. For the same compound, the GI50 in the assay on SW-620 and in the assay with MDA-MB-231 was > 100 µM (inactive) throughout.
`O=C(O)c1ccc(C=C2Sc3ccccc3S2)cc1`: the GI50 in the assay on M14 was 44.8 µM (inactive); in the assay with UACC-62, 26.2 µM (inactive); in the assay on A498 it was 14.5 µM (inactive); in the assay on HL-60, 35 µM (inactive); in the assay with UACC-257, 54.5 µM (inactive); in the assay on NCI-H460, 50 µM (inactive). Further, the GI50 in the assay on SK-OV-3 was 86.9 µM (inactive); in the assay with HCC 2998, 8.07 µM (inactive); in the assay with OVCAR-4 it was 55.3 µM (inactive); in the assay on SN12C it was 65.9 µM (inactive); with UO-31, 63.8 µM (inactive); in the assay with HOP-92 it was 64.4 µM (inactive). Also, the GI50 in the assay with COLO 205 is 92.7 µM (inactive); in the assay with SF-268 it was 52.6 µM (inactive); with RPMI-8226, 63.7 µM (inactive); with OVCAR-3, 30.3 µM (inactive); in the assay on RXF 393 it was 54.5 µM (inactive); with DU-145 it was > 100 µM (inactive). The GI50 in the assay on SW-620 and in the assay with MDA-MB-231 was > 100 µM (inactive) each time.
Take `N#CC(C#N)=C1CCCCc2ccc([N+](=O)[O-])cc21`: the GI50 in the assay with M14 is > 100 µM (inactive); with UACC-62, > 100 µM (inactive); in the assay with A498 it was 78.3 µM (inactive); in the assay on HL-60 it was 29 µM (inactive); in the assay with UACC-257 it was > 100 µM (inactive); in the assay with NCI-H460, > 100 µM (inactive). Besides, the GI50 in the assay on SK-OV-3 is > 100 µM (inactive); in the assay on HCC 2998, > 100 µM (inactive); in the assay with OVCAR-4, > 100 µM (inactive); with SN12C, 52.6 µM (inactive); in the assay on UO-31, 92.9 µM (inactive); with HOP-92, > 100 µM (inactive). For the same compound, the GI50 with COLO 205 was > 100 µM (inactive); with SF-268 it was > 100 µM (inactive); with RPMI-8226 it was 31.2 µM (inactive); in the assay on OVCAR-3 it was 15.7 µM (inactive); in the assay on RXF 393, 40.6 µM (inactive); in the assay on DU-145, > 100 µM (inactive). For the same compound, the GI50 is 41.9 µM (inactive) in the assay on SW-620 and > 100 µM (inactive) in the assay with MDA-MB-231.
Consider `C=CCN(c1cc(O)c2c(c(C)cn2S(=O)(=O)c2ccccc2)c1[N+](=O)[O-])S(C)(=O)=O`, for which the GI50 in the assay with M14 is > 100 µM (inactive); in the assay with UACC-62, > 10 µM (inactive); in the assay on A498, 74.1 µM (inactive); in the assay with HL-60, > 100 µM (inactive); in the assay on UACC-257, > 100 µM (inactive); with NCI-H460 it was 63.8 µM (inactive). The GI50 in the assay with SK-OV-3 is > 100 µM (inactive); in the assay on HCC 2998 it was > 100 µM (inactive); in the assay with OVCAR-4, > 100 µM (inactive); with SN12C, 78.9 µM (inactive); in the assay on UO-31, > 100 µM (inactive); in the assay on HOP-92, > 100 µM (inactive). In addition, the GI50 in the assay with COLO 205 was > 100 µM (inactive); in the assay on SF-268, > 100 µM (inactive); in the assay with RPMI-8226, 61.2 µM (inactive); in the assay with OVCAR-3, 65.5 µM (inactive); in the assay on RXF 393, 56 µM (inactive); in the assay with DU-145 it was > 100 µM (inactive). For the same compound, the GI50 in the assay with SW-620 and with MDA-MB-231 was > 100 µM (inactive) each time.
With `Cc1cc2c(cc1C)[n+]([O-])c(C(=O)/C=C/c1ccc3c(c1)OCO3)c(C)[n+]2[O-]`, the GI50 with M14 was 98.9 µM (inactive); in the assay on UACC-62, 29.9 µM (inactive); in the assay with A498, 71.6 µM (inactive); in the assay with HL-60, > 100 µM (inactive); in the assay on UACC-257 it was > 88.7 µM (inactive); with NCI-H460, > 91.8 µM (inactive). The GI50 in the assay on SK-OV-3 is 19.8 µM (inactive); with HCC 2998, > 78.5 µM (inactive); with OVCAR-4, > 100 µM (inactive); in the assay on SN12C, > 78.7 µM (inactive); in the assay with UO-31 it was > 100 µM (inactive); in the assay on HOP-92, 25.6 µM (inactive). The GI50 in the assay with COLO 205 was > 100 µM (inactive); in the assay with SF-268, 29.4 µM (inactive); with RPMI-8226, > 100 µM (inactive); in the assay with OVCAR-3, > 86.1 µM (inactive); with RXF 393 it was 28.7 µM (inactive); in the assay with DU-145, > 80.5 µM (inactive). For the same compound, the GI50 with SW-620 is > 100 µM (inactive); with MDA-MB-231, > 48.9 µM (inactive).
In the case of `CC[C@@]1(OP(=O)(O)O)C(=O)OCc2c1cc1n(c2=O)Cc2cc3ccccc3nc2-1`, the GI50 in the assay on M14 is 0.0776 µM (active); in the assay on UACC-62 it was 0.0381 µM (active); in the assay with A498 it was 0.0817 µM (active); with HL-60 it was 0.0306 µM (active); in the assay on UACC-257, 0.287 µM (active); in the assay on NCI-H460, 0.0308 µM (active). For the same compound, the GI50 was 0.342 µM (active) in the assay on SK-OV-3; 0.771 µM (active) in the assay with HCC 2998; 1.76 µM (inactive) in the assay with OVCAR-4; 0.0883 µM (active) in the assay with SN12C; 0.0836 µM (active) with UO-31; 0.447 µM (active) with HOP-92. For the same compound, the GI50 in the assay on COLO 205 was 0.847 µM (active); in the assay with SF-268, 0.0486 µM (active); in the assay on RPMI-8226 it was 0.0718 µM (active); with OVCAR-3, 2.73 µM (inactive); in the assay with RXF 393, 0.454 µM (active); in the assay with DU-145 it was 0.0488 µM (active). Besides, the GI50 in the assay on SW-620 was 0.403 µM (active); in the assay on MDA-MB-231, 3.37 µM (inactive).
